# Reference: patent US5504240A, “Borane-hydroxydialkylsulfide borates” (Aldrich Chemical Company, Inc., priority 1995, dated 1996)
# Test: not given
# Details: prior art; cited from earlier work
row,Compound,stability
1,"[BH3-][S+]1CCOCC1 [Borane-1,4-thioxane]",stable over prolonged periods
2,[BH3-][S+](C)C [Borane-methyl sulfide],much more stable than borane-tetrahydrofuran
3,[BH3-][O+]1CCCC1 [Borane-tetrahydrofuran],unstable over a period of time

# Test: not given
# Details: prior art; cited from earlier work
# Remark: another data set of the same source
row,Compound,solubility in water
1,"[BH3-][S+]1CCOCC1 [Borane-1,4-thioxane]",limited solubility in water
2,CSC [dimethyl sulfide],not soluble in water

# Test: solubility in water of hydroxysulfides (1 g per ... mL H2O)
# Assay type: physicochemical
# Details: mL H2O per 1 g hydroxysulfide
row,Compound,solubility in water 1 g per ... mL H2O [mL]
1,"CC(C)CCSCCOCCOCCO [i-AmSCH2 CH2 OCH2 CH2 OCH2 CH2 OH, 2-2-2-(isoamylthio)ethoxy!ethoxy!ethanol]",100
2,"CC(C)CCSCCOCCO [i-AmSCH2 CH2 OCH2 CH2 OH, 2-2-(isoamylthio)ethoxy!ethanol]",< 100
3,"CC(C)CCSCCO [i-AmSCH2 CH2 OH, 2-(isoamylthio)ethanol]",< 100

# Same assay, conditions: water
row,Compound,solubility in water 1 g per ... mL H2O (in words)
1,"CCSCCOCCOCCO [Et--SCH2 CH2 OCH2 CH2 OCH2 CH2 OH, 2-2-2-(ethylthio)ethoxy!ethoxy!ethanol]",miscible
2,"CCSCCOCCO [EtSCH2 CH2 OCH2 CH2 OH, 2-2-(ethylthio)ethoxy!ethanol]",miscible
3,"COCCSCCO [H3 COCH2 CH2 SCH2 CH2 OH, 2-(2-methoxyethylthio)ethanol]",miscible
4,"CC(C)(C)SCCOCCOCCO [t-BuSCH2 CH2 OCH2 CH2 OCH2 CH2 OH, 2-2-2-(tert-butylthio)ethoxy!ethoxy!ethanol]",miscible

# Same assay, conditions: water; mL H2O per 1 g hydroxysulfide
row,Compound,solubility [mg/mL]
1,"CC(C)(C)SCCOCCO [t-BuSCH2 CH2 OCH2 CH2 OH, 2-2-(tert-butylthio)ethoxy!ethanol]",66.7
2,"CC(C)(C)SCCO [t-BuSCH2 CH2 OH, 2-(tert-butylthio)ethanol]",20

# Test: not given
# Details: in BH3; liquid; prior art; cited from earlier work
row,Compound,borane concentration [M]
1,"[BH3-][S+]1CCOCC1 [Borane-1,4-thioxane]",8

# Test: active hydride analysis of borane adducts ([BH3], by hydrolysis and hydrogen evolved)
# Assay type: physicochemical
# Details: estimated by hydrolysis in water:glycerol:THF 1:1:1 and measuring hydrogen evolved
# Experimental: Alternatively, borate esters were prepared from the reaction of borane-tetrahydrofuran with hydroxysulfide in molar ratio 1:3. Quantitative borate ester formation was confirmed by measuring the hydrogen evolved. Warming of the reaction mixture (60°-65° C.) is necessary to drive the reaction to completion. Generally speaking, the novel compounds of this invention are conveniently prepared in a straight-forward procedure by passing diborane into a neat borate ester at 0° C. in a bubbler provided with a stirrer. Excess diborane not absorbed by the borate ester is absorbed in a down-stream bubbler containing tetrahydrofuran over mercury and cooled in ice water. A mercury bubbler is connected to the exit. Diborane is passed into the ester until the concentration of excess borane in THF reaches approximately 1M. The borane-borate adduct is stirred overnight at room temperature prior to disconnecting the bubblers and analyzed for active hydride following the procedure described by Brown, H. C., Organic Syntheses via Boranes, J. Wiley: New York, 1975, p. 191, using a 2M hydrochloric acid-glycerol-water(2:1:1) hydrolysis solution.
# A 100 ml one-neck, round-bottom flask equipped with a septum inlet, magnetic stirring bar and an adapter with a stopcock was charged with boron trifluoride diglyme (20 mmol). A 2M solution of sodium borohydride in triglyme (7.5 ml, 15 mmol) was added dropwise by means of a hypodermic syringe. Generation of diborane is smooth and the reaction is not exothermic. Generated diborane was passed through a bubbler containing sodium borohydride (0.1 g) in diglyme (5 ml) and a trap cooled to -78° C. was absorbed in neat 2-(tert-butylthio)ethanol (7.94 g, 60 mmol) at room temperature. After the addition was completed, the solution of borate was stirred at 50° C. for 15 min under a slow stream of nitrogen to produce the borate ester tris 2-(tert-butylthio)ethyl borate at room temperature. Escaped diborane was absorbed in the following bubbler containing tetrahydrofuran (10 ml) over mercury and cooled in ice water. A mercury bubbler was connected to the exit. Diborane was passed into the solution until the concentration of borane in the THF reached approximately 1M. The borane adduct, a colorless liquid, was analyzed for active hydride by a standard procedure using a water:glycerol:THF 1:1:1 hydrolyzing mixture. Concentration 6.4M, ^11 B NMR δ -26.03.
# ^b Estimated by hydrolysis in water: glycerol: THF 1:1:1 and measurin
row,Compound,[BH3] [M]
1,"[BH3-][S+](CCOB(OCC[S+]([BH3-])C(C)(C)C)OCC[S+]([BH3-])C(C)(C)C)C(C)(C)C (stereo not drawn) [9a, Tris 2-(tert-Butylthio)ethyl!borate borane adduct (1:3)]",6.4
2,[BH3-][S+](CCOB(OCC[S+]([BH3-])CCC(C)C)OCC[S+]([BH3-])CCC(C)C)CCC(C)C (stereo not drawn) [9b],5.9
3,"[BH3-][S+](CC)CCOCCOB(OCCOCC[S+]([BH3-])CC)OCCOCC[S+]([BH3-])CC (stereo not drawn) [9c, tris 2-2-(Ethylthio)ethoxy!ethyl!borate borane adduct (1:3)]",5.7
4,"[BH3-][S+](CCOCCOB(OCCOCC[S+]([BH3-])C(C)(C)C)OCCOCC[S+]([BH3-])C(C)(C)C)C(C)(C)C (stereo not drawn) [9d, tris 2-2-(tert-Butylthio)ethoxy!ethyl!borate borane adduct (1:3)]",5.5
5,"[BH3-][S+](CCOCCOB(OCCOCC[S+]([BH3-])CCC(C)C)OCCOCC[S+]([BH3-])CCC(C)C)CCC(C)C (stereo not drawn) [9e, tris 2-2-(Isoamylthio)ethoxy!ethyl borate borane adduct (1:3)]",5.0
6,"[BH3-][S+](CC)CCOCCOCCOB(OCCOCCOCC[S+]([BH3-])CC)OCCOCCOCC[S+]([BH3-])CC (stereo not drawn) [9f, tris 2-2-2-(Ethylthio)ethoxy!ethoxy!ethyl!borate borane adduct (1:3)]",5.2
7,"[BH3-][S+](CCOCCOCCOB(OCCOCCOCC[S+]([BH3-])C(C)(C)C)OCCOCCOCC[S+]([BH3-])C(C)(C)C)C(C)(C)C (stereo not drawn) [9g, tris 2-2-2-(tert-Butylthio)ethoxy!ethoxy!ethyl!borate borane adduct (1:3)]",4.2
8,"[BH3-][S+](CCOCCOCCOB(OCCOCCOCC[S+]([BH3-])CCC(C)C)OCCOCCOCC[S+]([BH3-])CCC(C)C)CCC(C)C (stereo not drawn) [9h, tris 2-2-2-(Isoamylthio)ethoxy!ethoxy!ethyl!borate borane adduct (1:3)]",4.0
9,"[BH3-][S+](CCOC)CCOB(OCC[S+]([BH3-])CCOC)OCC[S+]([BH3-])CCOC (stereo not drawn) [9i, tris 2-(2-Methoxyethylthio)ethyl!borate borane adduct (1:3)]",6.0
